Results taken from PMC5161367, “Discovery of Novel Small Molecule Inhibitors of VEGF Expression in Tumor Cells Using a Cell-Based High Throughput Screening Platform” (PLoS ONE, 2016).
pEC50, pIC50: −log10 of the molar value.

Tests used:
[1] = test system: A375 human melanoma cells; assay: Chick embryo tumor growth study; type: in vivo; details: A375 on CAM, single intravenous injection 500 μg per embryo, excised 6 days after dose
Procedure: The chick embryo tumor growth assay was performed as described previously with some modifications. A375 human melanoma cells (5 x 10^6) log-phase growth in a total volume of 40 μL RPMI1640 medium were inoculated into the CAM of 10-day old chick embryos. After 24 h, the embryo received a single intravenous injection of 100 μL of compound (500 μg per embryo) or vehicle control (5% Cremaphor and 5% ethanol in PBS). The embryos were incubated for another 6 days, at which time the embryos were sacrificed. Tumors that formed at the primary site were excised, trimmed free of surrounding CAM tissue, and weighed.
To test the hypothesis that targeting VEGF post-transcriptionally can be a useful approach for the treatment of cancers, we initially evaluated the efficacy of the compounds in a chick embryo tumor growth model, known to be angiogenesis-dependent. Briefly, A375 human melanoma cells were seeded on the chorioallantoic membrane (CAM) of 10 day old chick embryos and, after 24 h, the embryo received a single intravenous injection of 100 μL of compound (500 μg per embryo) or vehicle control (5% Cremaphor and 5% ethanol in PBS). Tumors were grown for seven days, excised, and their wet weights were determined.
A375 human melanoma cells (5 x 10^6) were inoculated into the CAM of 10-days-old chick embryos. […]

G-CSF = G-CSF ELISA in HT1080 cells under normoxia; type: cell-based; details: Homo sapiens, HT-1080; HT1080 cells under normoxia (21% oxygen), 48 hours
Procedure: (§1) Cells were treated with vehicle control (0.5% DMSO) or compounds at the indicated concentration for 48 hours, and specific proteins in conditioned medium were quantified using commercially available ELISA kits (R&D Systems) according to the manufacturer’s recommendations. VEGF was quantified in HeLa cells under hypoxia (1% oxygen); Tumor necrosis factor alpha (TNFα) was quantified in CEM cells stimulated with 1 μg/mL interleukin-1 beta (Sigma); erythropoietin (EPO) was quantified in HepB3 cells under hypoxic conditions (1% oxygen); and granulocyte colony-stimulating factor (G-CSF), basic fibroblast growth factor (FGF-2) and insulin-like growth factor 1 (IGF-1) were quantified without induction in HT1080 cells, HeLa cells and HepG2 cells, respectively.
(§2) Several target proteins were chosen as selectivity counter-screens, including TNF-alpha, FGF-2, G-CSF, IGF-1, and EPO. Similar to that of VEGF, the expression levels of these proteins are post-transcriptionally regulated, either through a 5’-UTR IRES, 3’-UTR AU-rich elements (AREs), or both.

mVEGF = assay: HT1080 xenograft pharmacodynamic model, intratumor mVEGF; type: in vivo, mouse; details: 200 mg/kg, twice per day for 7 days, oral, mean +/- SD, n = 10
Procedure: (§3) Log phase growing tumor cells (5–10 x 10^6 cells/mouse, depending on the cell line) were implanted subcutaneously in athymic nude mice. When the average tumor size reached the indicated size, mice were randomly divided into groups and administered vehicle (5% DMSO/ 95% PEG-300) or test compounds by oral gavage. Tumor volumes were measured twice per week using digital calipers and body weights once per week. Tumor volume was determined according to the formula: L x (W)^2/2, where L is the longest dimension and W is the shortest dimension.
(§4) At the end of experiments, the tumors were excised from mice and homogenized on ice using a Powergen homogenizer fitted with Omni-Tip disposable/reusable probes (both from Fisher Scientific) in Tris-HCl buffer containing a cocktail of proteinase inhibitors. Intra-tumor human VEGF levels, as well as levels of other growth factors or proteins, were subsequently measured using commercially available ELISA kits (R&D Systems). Protein concentrations of the homogenates were determined using the Bradford protein assay (Bio-Rad) and intratumor growth factor levels were normalized to the total protein concentration.
(§5) Among the VEGF UTR-selective compounds identified, PTC-858 is a potent hit with adequate pharmaceutical properties (data not shown). […]

FGF-2 = FGF-2 ELISA in HeLa cells under normoxia; type: cell-based; details: Homo sapiens; HeLa cells under normoxia (21% oxygen), 48 hours; read-out: ELISA EC50, FGF2
Procedure: as §1, §2

hSurvivin = assay: HT1080 xenograft pharmacodynamic model, intratumor hSurvivin; type: in vivo, human; details: 200 mg/kg, twice per day for 7 days, oral, mean +/- SD, n = 10
Procedure: as §3, §4, §5

[2] = Pharmacokinetics in the rat; type: in vivo; design: Dose normalized AUC in the rat: unit not given here
Procedure: (§6) Pharmacological characterization of PTC-510. Pharmacological assays were performed to characterize PTC-510, including metabolic stability in human, primate mouse and rat liver microsomes; absorption in Caco-2 cells; in vitro effect on hERG ion channel; pharmacokinetics; and acute toxicity in the rat.

[3] = Acute Toxicity Dose (ATD); type: in vivo
Procedure: as §6

[4] = Microsome metabolism - rat; type: in vitro ADME
Procedure: as §6

hERG ion channel = hERG ion channel (Homo sapiens, UniProt Q12809); type: biochemical
Sequence of hERG ion channel (Q12809 whole entry): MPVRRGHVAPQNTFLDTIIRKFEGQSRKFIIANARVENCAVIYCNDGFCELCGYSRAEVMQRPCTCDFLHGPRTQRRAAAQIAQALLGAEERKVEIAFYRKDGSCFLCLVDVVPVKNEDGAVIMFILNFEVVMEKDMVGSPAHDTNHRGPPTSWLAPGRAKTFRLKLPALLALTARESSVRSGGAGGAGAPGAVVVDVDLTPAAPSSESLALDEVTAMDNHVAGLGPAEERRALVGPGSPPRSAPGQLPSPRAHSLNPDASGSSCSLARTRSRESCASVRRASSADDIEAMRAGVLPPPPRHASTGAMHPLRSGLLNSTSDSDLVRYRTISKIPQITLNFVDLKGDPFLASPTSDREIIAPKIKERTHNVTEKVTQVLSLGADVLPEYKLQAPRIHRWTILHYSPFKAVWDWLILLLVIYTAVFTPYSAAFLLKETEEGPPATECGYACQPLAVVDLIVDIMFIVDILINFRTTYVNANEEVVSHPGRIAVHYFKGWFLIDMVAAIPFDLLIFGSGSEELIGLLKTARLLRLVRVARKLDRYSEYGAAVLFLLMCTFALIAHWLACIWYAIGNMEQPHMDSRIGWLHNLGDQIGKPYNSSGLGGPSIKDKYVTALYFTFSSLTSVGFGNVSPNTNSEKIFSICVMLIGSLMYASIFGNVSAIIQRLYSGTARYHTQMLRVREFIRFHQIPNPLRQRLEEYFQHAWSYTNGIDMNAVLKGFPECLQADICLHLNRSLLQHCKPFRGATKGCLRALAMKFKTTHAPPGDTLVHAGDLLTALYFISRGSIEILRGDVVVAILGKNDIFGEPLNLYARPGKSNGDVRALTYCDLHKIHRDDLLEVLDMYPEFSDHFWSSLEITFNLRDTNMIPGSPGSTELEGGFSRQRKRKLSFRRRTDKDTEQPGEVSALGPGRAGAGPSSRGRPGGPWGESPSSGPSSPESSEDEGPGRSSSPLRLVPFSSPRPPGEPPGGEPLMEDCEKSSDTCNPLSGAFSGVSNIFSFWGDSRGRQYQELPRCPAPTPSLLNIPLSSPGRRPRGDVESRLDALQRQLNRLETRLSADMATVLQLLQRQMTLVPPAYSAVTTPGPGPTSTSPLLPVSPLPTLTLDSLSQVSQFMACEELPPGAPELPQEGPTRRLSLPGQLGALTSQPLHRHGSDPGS
Procedure: as §6

Cyp1A2 = Cyp1A2 (Homo sapiens, UniProt P05177); assay: p450 inhibition Cyp1A2; type: in vitro ADME
Sequence of Cyp1A2 (P05177 whole entry): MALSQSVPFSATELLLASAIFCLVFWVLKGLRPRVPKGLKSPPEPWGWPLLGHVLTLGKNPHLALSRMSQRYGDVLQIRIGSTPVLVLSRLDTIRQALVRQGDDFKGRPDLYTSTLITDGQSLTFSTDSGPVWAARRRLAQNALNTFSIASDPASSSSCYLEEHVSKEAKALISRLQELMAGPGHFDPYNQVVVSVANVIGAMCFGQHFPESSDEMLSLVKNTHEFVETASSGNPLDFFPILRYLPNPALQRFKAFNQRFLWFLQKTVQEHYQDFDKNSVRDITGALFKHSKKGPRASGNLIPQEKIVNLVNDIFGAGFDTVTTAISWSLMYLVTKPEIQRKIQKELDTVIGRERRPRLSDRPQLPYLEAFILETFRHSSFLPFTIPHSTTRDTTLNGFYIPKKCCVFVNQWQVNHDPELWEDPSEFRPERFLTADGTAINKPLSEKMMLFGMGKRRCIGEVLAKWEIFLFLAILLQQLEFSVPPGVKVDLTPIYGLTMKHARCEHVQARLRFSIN

Cyp2C19 = Cyp2C19 (Homo sapiens, UniProt P33261); assay: p450 inhibition Cyp2C19; type: in vitro ADME
Sequence of Cyp2C19 (P33261 whole entry): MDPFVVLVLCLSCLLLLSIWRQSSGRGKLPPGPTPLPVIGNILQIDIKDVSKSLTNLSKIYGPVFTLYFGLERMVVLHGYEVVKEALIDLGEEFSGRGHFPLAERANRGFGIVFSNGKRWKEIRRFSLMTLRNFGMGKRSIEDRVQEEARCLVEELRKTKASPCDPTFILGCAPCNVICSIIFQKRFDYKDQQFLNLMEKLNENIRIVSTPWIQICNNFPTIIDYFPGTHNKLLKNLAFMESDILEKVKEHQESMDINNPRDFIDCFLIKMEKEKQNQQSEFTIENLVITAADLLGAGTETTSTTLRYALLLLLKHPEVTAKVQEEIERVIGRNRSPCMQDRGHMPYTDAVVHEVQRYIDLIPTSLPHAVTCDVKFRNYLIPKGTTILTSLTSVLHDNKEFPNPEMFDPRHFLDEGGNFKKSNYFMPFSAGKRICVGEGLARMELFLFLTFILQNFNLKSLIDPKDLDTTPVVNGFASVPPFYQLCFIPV

[5] = Plasma exposure after a single oral dose in mice; type: in vivo, mouse; details: male C57BL/6 mice, single oral dose 10 mg/kg, 5% DMSO and 95% PEG300
Procedure: Supplementary file pone.0168366.s006.doc: S6 Fig Exposure of PTC-510 after oral administration. Male C57BL/6 mice were dosed with test compound in 5% DMSO and 95% PEG300. At specified time points (3 mice per time point), mice were euthanized and blood collected by terminal cardiac puncture. Plasma test compounds were then measured by LC/MS-MS. (DOC) Click here for additional data file.
Male C57BL/6 mice were administered test compounds in 5% DMSO and 95% PEG300 at a dose of 10 mg/kg. At specified time points (3 mice per time point), mice were euthanized and blood collected by terminal cardiac puncture. Plasma concentrations of test compounds were then quantified by LC/MS-MS.

| SMILES | tumor size (wet weight) vs no-treatment or vehicle controls [1] | pEC50 (G-CSF) | intratumor mVEGF (mVEGF) | pEC50 (FGF-2) | intratumor hSurvivin (hSurvivin) | Dose normalized AUC in the rat [2] | bioavailability ([2]; in vivo, po, DMSO/PEG) [%] | Acute Toxicity Dose (ATD) in mouse [3] | Microsome metabolism - rat, % loss @ 1 h [4] [%] | HERG % inhibition @ 10 µM (hERG ion channel) [%] | pIC50 (Cyp1A2) | pIC50 (Cyp2C19) | bio-availability and exposure compared to PTC-858 [5] |
| --- | --- | --- | --- | --- | --- | --- | --- | --- | --- | --- | --- | --- | --- |
| Brc1ccc2[nH]c3c(c2c1)CCCC3n1cccc1 (stereo not shown) [PTC-858, 6-bromo-1-(1H-pyrrol-1-yl)-2,3,4,9-tetrahydro-1H-carbazole] | significantly reduced tumor size | < 4.52 | 12.6 ± 5.9 pg/mg total tumor proteins | 6.24 | 1815.43 ± 321.9 pg/mg total tumor proteins |  |  |  |  |  |  |  |  |
| COc1ccc(C2c3[nH]c4ccc(Br)cc4c3CC3C(=O)N(C4CCCCC4)C(=S)N32)cc1.O=C(O)C(F)(F)F (stereo not shown) [PTC-510, 9-bromo-2-cyclohexyl-5-(4-methoxyphenyl)-3-thioxo-2,3,5,6,11,11a-hexahydro-1H-imidazo[1’,5’:1,6]pyrido[3,4-b]indol-1-one trifluoroacetate] |  |  |  |  |  | 2.60 | 50 | No overt toxicity at 1000 mg/kg | 0 | 2 | < 5.30 | < 5.30 | much better bio-availability and exposure |
